# Results taken from patent US20080234130A1, “Compositions providing tolerance to multiple herbicides and methods of use thereof” (priority 2005, published 2008).
# How the values were obtained:
# [1] = tested on: non-glyphosate resistant Conyza (Welgevallen-paraquat resistant); experiment: Control of hairy fleabane by glyphosate, metsulfuron-methyl and two additives (Table 24); type: in vivo, Conyza bonariensis
# Experimental: This example included the same treatments as used in Example 11, except the treatments were carried out on a glyphosate sensitive biotype of Kleinskraalhans (Conyza bonariensis).
# • Biotype: Non-glyphosate resistant Conyza (Welgevallen-paraquat resistant) • Growth Stage: 10-15 leaf stage • Conditions: Cool and sunny • Volume rate: 200 L ha^−1 • glyphosate (ROUNDUP): 360 g a.i. L^−1
# [2] = tested on: GAT-HRA transgenic cotton plants; experiment: Greenhouse over the top herbicide spray of cotton; type: in vivo, Gossypium hirsutum; details: glyphosate over the top at 4-6 leaf stage, 1.5 lb acid equivalent per acre; 14 days after application
# Excerpt: (§1) Transformed cotton plants were rooted and then transferred to soil for further growth. Plants were then subjected to herbicide spray treatments in a greenhouse. […] Untransformed Coker 312 control plants were dead 2 weeks after glyphosate application. […] Plants transformed with both GAT and HRA were further subjected to an “over the top” application of the sulfonylurea herbicide rimsulfuron at a rate of 16 g active ingredient/hectare. […] In further experiments 32 g ai/ha rimsulfuron were applied to the cotton.
# [3] = tested on: untransformed Coker 312 cotton; experiment: Greenhouse over the top herbicide spray of cotton; type: in vivo, Gossypium hirsutum; details: glyphosate over the top at 4-6 leaf stage, 1.5 lb acid equivalent per acre; 2 weeks after application
# Excerpt: as §1
# [4] = tested on: infected GS3 embryos with the GAT construct; experiment: Glyphosate selection of embryos infected with the GAT construct; type: cell-based, maize; details: media with 1.0 mM or 2.0 mM glyphosate, about 40 days culture
# Experimental: (§2) A glyphosate kill curve was established by testing non-transformed embryos response on media with different levels of glyphosate. GS3 embryos were isolated from an immature ear and placed onto media containing glyphosate at 0.0, 0.5, 1.0, and 2.0 mM. After about 40 days culture, the response of the embryos were observed and recorded. Similarly, infected GS3 embryos with the GAT construct were placed onto media containing glyphosate at 0.0, 0.5, 1.0, and 2.0 mM. After about 40 days culture, the response of the infected embryos were observed and recorded (FIG. 7).
# [5] = tested on: heterozygous GAT-HRA corn; experiment: Postemergence effect of ALS herbicides, glyphosate and glufosinate (fresh weight, visual injury); details: 200 g/ha (glyphosate 3472 g ae/ha, glufosinate ammonium 1870 g/ha), mean of four replications
# [6] = tested on: non-transformed GS3 embryos; experiment: Glyphosate kill curve on culture media; type: cell-based, maize; details: about 40 days culture
# Experimental: as §2
# [7] = tested on: parent elite stiff stalk inbred corn; experiment: Postemergence effect of ALS herbicides, glyphosate and glufosinate (fresh weight, visual injury); details: 200 g/ha (glyphosate 3472 g ae/ha, glufosinate ammonium 1870 g/ha), mean of four replications
# [8] = tested on: non-transgenic control soybeans; experiment: Postemergence greenhouse spray of soybeans, visual injury (Table 11); details: 8960 g/ha
# Experimental: (§3) Young regenerated transgenic plants were sprayed with 1× glyphosate (1× rate of glyphosate is 1120 g/ha of glyphosate isopropylamine) to cull segregants. Four replications were performed for each treatment. Plants were then treated with various herbicides, including glyphosate and ALS-inhibitor herbicides.
# (§4) Six soybean seeds from each variety to be assayed were planted 1 cm deep in 5.5 (13.97 cm) inch square plastic container of a synthetic growth medium. […] When possible, containers were thinned to two uniform plants. Non-transgenic lines were thinned to two uniform plants per container.
# (§5) Results are expressed below in Table 11 as the mean of four replications.
# [9] = tested on: GAT-HRA soybeans; experiment: as above; details: 8960 g/ha
# Experimental: as §3, §4, §5
# [10] = tested on: Fairview (Tulbagh) ryegrass resistant to glyphosate, paraquat, and ACCase-inhibitors; experiment: Control of resistant ryegrass by glyphosate, metsulfuron-methyl and two additives (Table 25); type: in vivo; details: Trial 1: glyphosate (ROUNDUP) 0.5 L/ha
# Experimental: This example was conducted on one of the most resistant ryegrass types in the world, ryegrass resistant to non-selective herbicides, e.g., Fairview (Tulbagh), which is resistant to glyphosate, paraquat, and ACCase-inhibitors. In this example, the addition of metsulfuron-methyl (BRUSH-OFF®) at 5 and 10 g ha^−1, with 1% ammonium sulfate-based adjuvant (ADD-UP®) to 0.5 L Roundup improved control by 44% (e.g., 50% to 94%).
# • Biotype: Fairview (Tulbagh) resistant to glyphosate, paraquat, and ACCase-inhibitors. • Growth Stage: 10-15 leaf stage • Conditions: Cool and sunny • 15 Volume rate: 200 L ha^−1 • glyphosate (ROUNDUP): 360 g ai L^−1
# [11] = tested on: non-glyphosate resistant ryegrass (70-04); experiment: Control of ryegrass by glyphosate, metsulfuron-methyl and two additives (Table 23); type: in vivo; details: Trial 1: glyphosate (SCAT) 0.5 L/ha
# Experimental: The example was conducted on non-glyphosate resistant ryegrass. As provided in Table 23, all treatments that included glyphosate [180 g a.i. L ha^−1 (0.5 L glyphosate (SCAT®))] plus metsulfuron-methyl (BRUSH-OFF®) (5 and 10 g ha^−1) gave 100% control of the ryegrass.
# • Biotype: non-glyphosate resistant ryegrass (70-04) • Population profile: Rup 0.25 control (%) 6.25 • Rup 0.5 control (%) 81.25 • Rup 1.0 control (%) 93.75 • Growth Stage: 5-6 leaf stage • Conditions: hot and sunny • Volume rate: 200 L ha^−1
# [12] = tested on: Fairview (Tulbagh) ryegrass resistant to glyphosate, paraquat, and ACCase-inhibitors; experiment: Control of resistant ryegrass by glyphosate and representative SU's (Table 26); type: in vivo; details: Trial 2: glyphosate (SCAT) 6 L/ha; sprayed with 1% ADD-UP
# Excerpt: In this example, four different SU's were applied together with glyphosate (SCAT®) on the resistant ryegrass. The results as to the best SU partner for glyphosate were inconclusive, but the average benefit of applying an SU with glyphosate on herbicide resistant ryegrass was 39% (e.g., 34% control with glyphosate (SCAT®) only and 57-83% control with glyphosate (SCAT®) plus metsulfuron-methyl (BRUSH-OFF®), chlorsulfuron (GLEAN®), or triasulfuron (LOGRAN®)).
# • Biotype: Fairview (Tulbagh) resistant to glyphosate, paraquat, and ACCase-inhibitors. • Growth Stage: 4 leaf stage • Conditions: Cool and sunny • Volume rate: 200 L ha^−1 • All treatments sprayed with 1% ADD-UP
# [13] = 2 weeks after treatment, 0% no injury, 100% plant death
smiles,measurement,setting,value
"O=C(O)CNCP(=O)(O)O [Glyphosate, N-phosphonomethylglycine]",plants killed,"[1]; glyphosate on its own, 10-15 leaf stage, 200 L ha^-1",1 out of 16 plants
same,GAT-HRA transgenic plants with no deleterious symptoms,[2],approximately 50%
same,effect on untransformed Coker 312 control plants,[3],dead
same,resistant callus initiation of infected embryos,[4],some embryos initiated resistant callus
same,% Visual Injury Heterozygous GAT-HRA,[5]; [13],10%
same,Fresh Weight (g) Heterozygous GAT-HRA,"[5]; applied two weeks after planting, fresh shoots 2 weeks after treatment, untreated 98.8 g",97.4 g
same,callus growth,[6]; media with 1.0 and 2.0 mM glyphosate,very little callus growth
same,embryos showing callus initiation,[6]; medium with 0.5 mM glyphosate,about half of the embryos
same,% Visual Injury Parent elite stiff stalk inbred,[7]; [13],100%
same,Fresh Weight (g) Parent elite stiff stalk inbred,"[7]; applied two weeks after planting, fresh shoots 2 weeks after treatment, untreated 76.4 g",1.0 g
same,% Visual Injury,"[8]; STS ®, Line # 25",100%
same,% Visual Injury,"[8]; STS ®, Line # 46",100%
same,% Visual Injury,"[8]; STS ®, mean",100%
same,% Visual Injury,"[8]; Wild Type, Line # 82",100%
same,% Visual Injury,"[8]; Wild Type, Line Jack",100%
same,% Visual Injury,"[8]; Wild Type, mean",100%
same,% Visual Injury,"[9]; Event # 59, Line # 21",40%
same,% Visual Injury,"[9]; Event # 59, Line # 28",37%
same,% Visual Injury,"[9]; Event # 59, mean",38%
same,% Visual Injury,"[9]; Event # 60, Line # 07",19%
same,% Visual Injury,"[9]; Event # 60, Line # 11",11%
same,% Visual Injury,"[9]; Event # 60, Line # 22",11%
same,% Visual Injury,"[9]; Event # 60, Line # 35",9%
same,% Visual Injury,"[9]; Event # 60, Line # 41",13%
same,% Visual Injury,"[9]; Event # 60, Line # 46",20%
same,% Visual Injury,"[9]; Event # 60, Line # 70",9%
same,% Visual Injury,"[9]; Event # 60, Line # 75",14%
same,% Visual Injury,"[9]; Event # 60, Line # 77",19%
same,% Visual Injury,"[9]; Event # 60, Line # 79",18%
same,% Visual Injury,"[9]; Event # 60, Line # 82",20%
same,% Visual Injury,"[9]; Event # 60, Line # 84",22%
same,% Visual Injury,"[9]; Event # 60, mean",15%
same,% Visual Injury,"[9]; Event # 61, Line # 02",10%
same,% Visual Injury,"[9]; Event # 61, Line # 02B",10%
same,% Visual Injury,"[9]; Event # 61, Line # 05",11%
same,% Visual Injury,"[9]; Event # 61, Line # 14",10%
same,% Visual Injury,"[9]; Event # 61, Line # 18",10%
same,% Visual Injury,"[9]; Event # 61, Line # 24",60%
same,% Visual Injury,"[9]; Event # 61, Line # 33",84%
same,% Visual Injury,"[9]; Event # 61, Line # 34",23%
same,% Visual Injury,"[9]; Event # 61, Line # 47",15%
same,% Visual Injury,"[9]; Event # 61, Line # 49",9%
same,% Visual Injury,"[9]; Event # 61, Line # 51",10%
same,% Visual Injury,"[9]; Event # 61, Line # 60",16%
same,% Visual Injury,"[9]; Event # 61, Line # 62",6%
same,% Visual Injury,"[9]; Event # 61, Line # 99",10%
same,% Visual Injury,"[9]; Event # 61, mean",20%
same,% Visual Injury,"[9]; Event # 64, Line # 41",20%
same,% Visual Injury,"[9]; Event # 64, Line # 47",10%
same,% Visual Injury,"[9]; Event # 64, mean",14%
O=C(O)CNCP(=O)(O)O [glyphosate (ROUNDUP ®)],Control (%),[1]; Trial 1: glyphosate (ROUNDUP) 0.5 L/ha,12%
same,Control (%),[10],50%
O=C(O)CNCP(=O)(O)O [glyphosate (SCAT ®)],Control (%),[11],94%
same,Control (%),[12],34%
